Test results taken from patent US20080167189A1, “Polymer Compositions and Their Use in the Production of Active or Effective Ingredient Compositions” (Basf Aktiengesellschaft, priority 2005, published 2008).
≈ marks a conversion by molar mass, not a printed value.

Assays:
physchem = settings: water
[1] = Solubility of the active compounds in distilled water

With O=C(Nc1ccccc1-c1ccc(Cl)cc1)c1cccnc1Cl [Boscalid] the solubility (physchem) was 4.6 µg/mL (≈ 13.4 µM).

COC(=O)N(OC)c1ccccc1COc1ccn(-c2ccc(Cl)cc2)n1 [Pyraclostrobin] showed a solubility [1] of 2.4 µg/mL (≈ 6.19 µM).
